These results are taken from ChEMBL document CHEMBL3879906 (2013).

Series [1] deals with Cardiac muscle cell. The experiment in a line: Increase in reverse rate-dependent action potential duration at 90% repolarization in human atrial myocytes at 0.5 to 2 Hz at 50 uM by whole cell patch clamp method. It is filed as functional, cell-based. For orientation: In patch-clamp work, channel activity is measured electrically.
For series [2], the system named is Cardiac muscle cell. The experiment in a line: Increase in reverse rate-dependent action potential duration at 50% repolarization in human atrial myocytes at 0.5 to 2 Hz at 50 uM by whole cell patch clamp method. It is filed as functional, cell-based.
The subject of series [3] is Cardiac muscle cell. Description: Increase in reverse rate-dependent action potential duration at 75% repolarization in human atrial myocytes at 0.5 to 2 Hz at 50 uM by whole cell patch clamp method. It is filed as functional, cell-based.
Series [4] has as its system Mus musculus. Description: Acute toxicity in Kunming mouse assessed as mortality at 0.3 g/kg, po administered every 1.5 hrs for 3 times measured for 2 weeks relative to vehicle-treated control. It is filed as organism-based. The following applies: in vivo, 300 mg/kg, 336 h.
Series [5] is described as follows: Effect on resting membrane potential in human atrial myocytes at 5 to 10 uM by whole cell patch clamp method. It is filed as cell-based. The following applies: cardiac muscle cell.
For series [6], the system named is Canis familiaris. The experiment in a line: Anti-atrial fibrillation activity in anesthetized dog assessed as prolongation of effective refractory time period of left atrium at 200 to 250 ms of basic cycle length at 5 mg/kg administered intraduodenally measured after 1 to 4 hrs relative to vehicle-treated control. It is filed as functional, Canis lupus familiaris.

The subject of series [7] is Cardiac muscle cell. The experiment in a line: Prolongation of action potential duration in human atrial myocytes at 2 Hz at 5 to 10 uM by whole cell patch clamp method. It is filed as functional, cell-based.
The target in series [8] is T1, Voltage-gated potassium channel, IKs; KCNQ1(Kv7.1)/KCNE1(MinK) (Homo sapiens, UniProt P51787+P15382). The experiment in a line: Inhibition of human KCNQ1/KCNE1 expressed in HEK293 cells assessed as decrease in current amplitude at +20 to +60 mV by whole cell patch clamp method. It is filed as cell-based.
For series [9], the target named is Potassium voltage-gated channel subfamily A member 5 (Homo sapiens) (UniProt P22460). The experiment in a line: Inhibition of Kv1.5 in human atrial myocytes assessed as decrease in ultra rapidly activating delayed rectifier potassium current amplitude at 40 mV by whole cell patch clamp method. It is filed as cell-based.
The target is the same in series [10]. The experiment in a line: Inhibition of Kv1.5 in human atrial myocytes assessed as decrease in ultra rapidly activating delayed rectifier potassium tail and step current amplitude at 3 to 30 uM by whole cell patch clamp method. It is filed as cell-based.
In series [11] the test system is Mus musculus. The experiment in a line: Acute toxicity in Kunming mouse assessed as abnormal activity at 0.3 g/kg, po administered every 1.5 hrs for 3 times measured for 2 weeks relative to vehicle-treated control. The settings on record: in vivo, 300 mg/kg, 336 h. It is filed as organism-based.
For series [12], the target named is T1, Voltage-gated potassium channel, IKs; KCNQ1(Kv7.1)/KCNE1(MinK). The experiment in a line: Inhibition of human KCNQ1/KCNE1 expressed in HEK293 cells assessed as recovery of current amplitude at 30 uM measured after compound washout by whole cell patch clamp method. It is filed as cell-based. On the set-up: scale not given: the % may be the effect or the level left. The following applies: hek293, 30 µM.

The test system of series [13] is Cardiac muscle cell. The experiment in a line: Increase in action potential duration at 75% repolarization in human atrial myocytes at 0.5 to 2 Hz at 10 uM by whole cell patch clamp method. It is filed as functional, cell-based.
Series [14] concerns Canis familiaris. The experiment in a line: Anti-atrial fibrillation activity in bilateral vagal stimulated anesthetized dog assessed as time duration of atrial fibrillation at 100 ms of basic cycle length at 5 mg/kg administered intraduodenally measured after 2 hrs. It is filed as functional, Canis lupus familiaris.
Series [15] has as its system Canis familiaris. Description: Induction of QTc interval prolongation in anesthetized dog at 5 mg/kg administered intraduodenally after 1 to 4 hrs. The following applies: in vivo, other. It is filed as organism-based, Canis lupus familiaris.
Series [16] addresses Voltage-gated inwardly rectifying potassium channel KCNH2 (Homo sapiens, UniProt Q12809). Description: Inhibition of human ERG expressed in HEK293 cells assessed as decrease in current amplitude at 30 uM by whole cell patch clamp method. It is filed as cell-based. The settings on record: hek293, 30 µM.
A further series is filed under the species Cavia porcellus. The experiment in a line: Inhibition of acetylcholine-activated potassium channel in guinea pig atrial myocytes assessed as reversal of carbachol-induced membrane conductance at 3 uM by whole cell patch clamp method. It is filed as cell-based.
The subject of series [17] is Cardiac muscle cell. The experiment in a line: Increase in action potential duration at 50% repolarization in human atrial myocytes at 0.5 to 2 Hz at 10 uM by whole cell patch clamp method. It is filed as functional, cell-based.
The target in series [18] is T1, Voltage-gated potassium channel, IKs; KCNQ1(Kv7.1)/KCNE1(MinK). The experiment in a line: Inhibition of human KCNQ1/KCNE1 expressed in HEK293 cells assessed as decrease in current amplitude at 30 uM by whole cell patch clamp method. It is filed as cell-based. The following applies: hek293, 30 µM.
For series [19], the target named is T2, A-type voltage-gated potassium channel KCND3 (Homo sapiens, UniProt Q9UK17).
T2 sequence (Q9UK17 whole entry): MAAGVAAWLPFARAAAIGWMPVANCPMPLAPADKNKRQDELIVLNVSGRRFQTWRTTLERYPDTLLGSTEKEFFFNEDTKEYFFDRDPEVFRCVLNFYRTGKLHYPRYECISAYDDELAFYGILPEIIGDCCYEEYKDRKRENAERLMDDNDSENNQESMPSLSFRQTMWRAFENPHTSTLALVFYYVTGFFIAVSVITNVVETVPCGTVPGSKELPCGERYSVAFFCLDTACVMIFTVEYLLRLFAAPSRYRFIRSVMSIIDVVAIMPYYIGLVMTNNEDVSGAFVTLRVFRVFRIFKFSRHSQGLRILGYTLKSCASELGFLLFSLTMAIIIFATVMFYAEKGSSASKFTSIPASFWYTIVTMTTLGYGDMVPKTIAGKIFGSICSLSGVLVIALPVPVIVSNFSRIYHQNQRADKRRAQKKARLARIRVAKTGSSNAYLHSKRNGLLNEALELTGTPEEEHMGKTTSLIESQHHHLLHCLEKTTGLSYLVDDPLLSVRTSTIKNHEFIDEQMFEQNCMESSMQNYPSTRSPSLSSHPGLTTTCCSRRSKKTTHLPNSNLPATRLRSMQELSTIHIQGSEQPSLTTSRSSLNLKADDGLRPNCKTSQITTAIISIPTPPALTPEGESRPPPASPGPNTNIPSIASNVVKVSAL
Description: Inhibition of Kv4.3 in human atrial myocytes assessed as recovery time constant of transient outward potassium current amplitude at 10 uM by whole cell patch clamp method (reference value: 102 +/- 12 ms). It is filed as cell-based.

Series [20] relates to Heart. The experiment in a line: Effect on QTc interval in New Zealand white rabbit heart under hypokalemic conditions at 30 uM by electrocardiogram (reference value: 304.5 to 340.1 ms). It is filed as ADME, Oryctolagus cuniculus.
For series [21], the target named is Potassium voltage-gated channel subfamily A member 5 (Homo sapiens) (UniProt P22460). The experiment in a line: Inhibition of Kv1.5 in human atrial myocytes assessed as decrease in ultra rapidly activating delayed rectifier potassium current amplitude at 3 uM after 8 mins by whole cell patch clamp method. It is filed as cell-based.
For series [22], the system named is Canis familiaris. The experiment in a line: Anti-atrial fibrillation activity in bilateral vagal stimulated anesthetized dog assessed as time duration of atrial fibrillation at 100 ms of basic cycle length at 10 mg/kg administered intraduodenally. It is filed as functional, Canis lupus familiaris.
Series [23] can be described thus: Effect on amplitude of action potential in human atrial myocytes at 5 to 10 uM by whole cell patch clamp method. It is filed as cell-based. The following applies: cardiac muscle cell.
For series [24], the system named is Heart. The experiment in a line: Effect on heart rate in New Zealand white rabbit heart under hypokalemic conditions at 30 uM by electrocardiogram (reference value: 157 to 175 /min). It is filed as ADME, tissue-based, Oryctolagus cuniculus.
Series [25] relates to Cardiac muscle cell. The experiment in a line: Increase in action potential duration at 90% repolarization in human atrial myocytes at 0.5 to 2 Hz at 10 uM by whole cell patch clamp method. It is filed as functional, cell-based.
Series [26] addresses T2, A-type voltage-gated potassium channel KCND3. Description: Inhibition of Kv4.3 in human atrial myocytes assessed as decrease in transient outward potassium current amplitude at 3 to 10 uM by whole cell patch clamp method. It is filed as cell-based.

Activity calls are given as the source filed them. The rule behind the calls is not given here.

Potassium voltage-gated channel subfamily A member 5 (Homo sapiens), sequence (P22460 whole entry): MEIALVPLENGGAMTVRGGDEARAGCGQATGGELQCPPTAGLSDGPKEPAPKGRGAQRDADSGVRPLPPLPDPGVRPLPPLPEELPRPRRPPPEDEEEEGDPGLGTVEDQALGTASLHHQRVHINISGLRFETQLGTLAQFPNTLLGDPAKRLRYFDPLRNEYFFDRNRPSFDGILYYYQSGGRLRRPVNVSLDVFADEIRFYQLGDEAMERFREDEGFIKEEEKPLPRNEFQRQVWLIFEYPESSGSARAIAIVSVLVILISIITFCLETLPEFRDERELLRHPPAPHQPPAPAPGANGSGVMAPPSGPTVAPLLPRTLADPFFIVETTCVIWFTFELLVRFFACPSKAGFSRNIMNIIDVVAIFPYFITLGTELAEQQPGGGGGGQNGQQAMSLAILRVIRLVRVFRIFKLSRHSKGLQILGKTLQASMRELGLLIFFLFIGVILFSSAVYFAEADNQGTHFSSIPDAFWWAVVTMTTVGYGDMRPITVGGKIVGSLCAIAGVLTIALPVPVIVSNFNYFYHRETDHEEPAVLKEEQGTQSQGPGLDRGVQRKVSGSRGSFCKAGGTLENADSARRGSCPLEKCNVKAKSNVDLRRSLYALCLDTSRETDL
T1 sequence (P51787 whole entry): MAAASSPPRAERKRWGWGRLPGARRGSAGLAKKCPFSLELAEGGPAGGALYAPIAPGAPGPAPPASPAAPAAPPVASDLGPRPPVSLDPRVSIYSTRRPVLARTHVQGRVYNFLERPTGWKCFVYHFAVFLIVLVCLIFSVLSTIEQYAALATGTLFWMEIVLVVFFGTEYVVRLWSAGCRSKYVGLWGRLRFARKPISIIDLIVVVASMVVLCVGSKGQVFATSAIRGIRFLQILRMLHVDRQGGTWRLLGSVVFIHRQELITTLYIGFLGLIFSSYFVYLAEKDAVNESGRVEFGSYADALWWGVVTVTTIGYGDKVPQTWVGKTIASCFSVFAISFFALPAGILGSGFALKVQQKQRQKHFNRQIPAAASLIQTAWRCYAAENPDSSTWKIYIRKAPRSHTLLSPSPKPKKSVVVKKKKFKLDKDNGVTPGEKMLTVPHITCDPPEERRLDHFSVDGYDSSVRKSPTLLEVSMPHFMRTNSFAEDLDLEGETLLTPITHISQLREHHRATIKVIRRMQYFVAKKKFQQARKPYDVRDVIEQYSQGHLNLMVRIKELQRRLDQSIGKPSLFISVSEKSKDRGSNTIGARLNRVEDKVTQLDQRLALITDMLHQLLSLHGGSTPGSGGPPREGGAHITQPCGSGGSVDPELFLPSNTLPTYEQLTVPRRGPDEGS
Voltage-gated inwardly rectifying potassium channel KCNH2, sequence (Q12809 whole entry): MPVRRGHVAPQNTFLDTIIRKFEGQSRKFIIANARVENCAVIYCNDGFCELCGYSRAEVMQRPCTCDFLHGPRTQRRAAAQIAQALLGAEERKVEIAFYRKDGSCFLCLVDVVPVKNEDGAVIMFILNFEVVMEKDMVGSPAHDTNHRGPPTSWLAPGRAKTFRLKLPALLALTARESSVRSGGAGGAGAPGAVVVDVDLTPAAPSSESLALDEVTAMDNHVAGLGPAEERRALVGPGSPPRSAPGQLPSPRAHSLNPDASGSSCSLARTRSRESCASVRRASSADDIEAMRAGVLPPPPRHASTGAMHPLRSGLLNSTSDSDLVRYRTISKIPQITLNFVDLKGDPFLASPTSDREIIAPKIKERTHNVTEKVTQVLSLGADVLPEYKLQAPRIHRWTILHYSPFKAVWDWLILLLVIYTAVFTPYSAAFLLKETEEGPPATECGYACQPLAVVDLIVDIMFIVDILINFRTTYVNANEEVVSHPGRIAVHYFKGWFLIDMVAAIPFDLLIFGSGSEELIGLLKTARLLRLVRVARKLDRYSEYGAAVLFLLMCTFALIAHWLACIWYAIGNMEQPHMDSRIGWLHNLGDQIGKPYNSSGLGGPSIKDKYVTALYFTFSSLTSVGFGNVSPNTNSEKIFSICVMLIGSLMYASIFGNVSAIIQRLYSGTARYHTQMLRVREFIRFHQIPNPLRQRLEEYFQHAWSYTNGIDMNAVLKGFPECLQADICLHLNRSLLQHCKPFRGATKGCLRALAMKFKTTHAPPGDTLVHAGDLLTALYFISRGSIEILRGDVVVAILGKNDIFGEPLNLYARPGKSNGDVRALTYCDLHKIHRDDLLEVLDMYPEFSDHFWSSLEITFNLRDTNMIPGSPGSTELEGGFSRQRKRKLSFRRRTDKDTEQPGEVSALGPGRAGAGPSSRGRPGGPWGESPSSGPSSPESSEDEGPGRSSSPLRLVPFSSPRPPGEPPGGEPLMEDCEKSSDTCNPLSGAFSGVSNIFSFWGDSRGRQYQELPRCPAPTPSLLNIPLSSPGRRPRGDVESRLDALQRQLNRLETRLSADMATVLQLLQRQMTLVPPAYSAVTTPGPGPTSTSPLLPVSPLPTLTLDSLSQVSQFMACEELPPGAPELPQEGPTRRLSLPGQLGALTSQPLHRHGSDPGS

For `Nc1ccncc1`, the outcome with Cardiac muscle cell [1], in the series with Cardiac muscle cell [2] and in the series on Cardiac muscle cell [3] was Active.
As to `COc1ccc(-c2cc(=O)c3c(O)cc(O)cc3o2)cc1` [ACACETIN], the Activity entry in the series on Mus musculus [4] is “Non-Toxic”; in series [5], “Non-Toxic”; in the series on Canis familiaris [6] it was 10 - 25%; with Mus musculus [11] it was “Non-Toxic”; in series [12], 83%; with Canis familiaris [15], “Non-Toxic”. The Activity entry is listed as “Non-Toxic” in series [23] and 156 bpm in the series on Heart [24]. In addition, the result in the series on Cardiac muscle cell [7], with Cardiac muscle cell [13], in the series with Cardiac muscle cell [17] and with Cardiac muscle cell [25] was Active. For the same compound, the “inhibition (INH)” value in [8] was “Dose-dependent effect”; in series [16], “Active”; in [18], “Active”; in series [26], “Active”. In series [9], the inhibition result was “Dose-dependent effect”. The inhibition entry (in series [10]; in the series listed under Cavia porcellus; in series [21]) was “Active” each time. Further, the Time is 5.31 to 6.12 min with Canis familiaris [14], 136 ms in [19], 308.7 ms in the series with Heart [20] and 4.3 to 7.11 min in the series on Canis familiaris [22].
Take `CC(C)NCC(O)c1ccc(NS(C)(=O)=O)cc1` (centres undefined) [SOTALOL]: in the series on Canis familiaris [14], the Time is on record as 8.5 min. In the series with Canis familiaris [15], the Activity entry is listed as “Toxic”.
